The test relates to Interleukin-6 (IL-6). The test is described as follows: Interleukin-6 (IL-6) assay: UV-stressed skin cells, IL-6 ELISA of media supernatant. The class given is cell-based. Particulars: FIG. 2; active alone at 0.0001% by weight of the composition; skin cells (keratinocytes or fibroblasts), UV dose 61,500 Joules/m^2. The method, then:
Interleukin-6 (IL-6) Assay Interleukin-6 (IL-6) bioactivity in skin cells was measured. IL-6 is a cytokine and used as a biomarker for inflammation. Skin cells (keratinocytes or fibroblasts) were placed under UV stress to induce an IL-6 response in the presence of an active or blend of actives to determine the activity of that active or blend of actives in inhibiting an IL-6 response. Skin cells (keratinocytes or fibroblasts) were taken from culture, seeded in a 96-well plate at a density of 5000 cells per well in cell growth media with supplements and left to incubate for 24 hours at 37° C. Determination of cell number for the purpose of plating was performed in accordance with standard methods known in the art. After incubation, the cell growth media was replaced with 100 μl of PBS without calcium and magnesium and containing the relevant concentration of active(s) required. Controls include untreated irradiated and non-irradiated samples which require 100 μl pure PBS without calcium and magnesium or containing a maximum of 0.1%. Dimethyl sulfoxide (DMSO) was used where necessary to dissolve the active(s). Salicylic acid is the positive control for this assay. The cells were incubated with the actives for 30 minutes at 37° C. before being irradiated with a UV dose of 61,500 Joules/m^2. […]
Background: An ELISA detects its analyte on a solid surface through an enzyme-linked reagent.

Regarding `CCCCCCCCCCCCCC[C@@H](O)[C@@H](O)[C@@H](N)CO.Cl` [phytosphingosine hydrochloride], the “inhibited IL-6 activity” value stood at 58%.
